Source: US10799521B2, “Use of icaritin in preparing medicament for preventing or treating hematocytopenia” (Lunan Pharmaceutical Group Corporation, priority 2013, dated 2020)
Marks after values point to notes of the source that are not given here.

What was measured:
[1] = tested on: active immune thrombocytopenia mice; test: Active immune thrombocytopenia in mice (platelets in peripheral blood); type: in vivo, Balb/C mice; details: x ± s
Procedure: 72 Balb/C mice were selected, weighed, and randomly divided into […] administration groups, i.e. the normal group, the model control group, the icariin group (positive control group), and the icaritin administration groups (high-, medium-, and low-dose groups), with 12 mice in each group. […] On the second day after the model was established, each group was administered with the following therapeutic agents: The normal group: administered intragastrically with the same volume of normal saline; The model control group: administered intragastrically with the same volume of normal saline; The […]: […]; The high-dose icaritin group: […] Example 9; The medium-dose icaritin group: […] Example 9; The low-dose icaritin group: […] Each of the administration groups was administered once a day and fed normally. After establishing the model three times, each administration group was continued to be administered for one week. The mice were anesthetized, and blood was sampled to measure the number of platelets and determine the effect of icaritin on the number of platelets (PLT) in the peripheral blood.

[2] = tested on: model of thrombocytopenia induced by cyclophosphamide in mice; test: Thrombocytopenia induced by cyclophosphamide in mice (platelets in peripheral blood); type: in vivo, Balb/C mice; details: cyclophosphamide model mice, 3 weeks, x ± s
Procedure: 72 Balb/C mice were selected, weighed, and randomly divided into 6 groups, i.e. the normal group, the model control group, the icariin group (positive control group), and the icaritin administration groups (high-, medium-, and low-dose groups), with 12 mice in each group. […] One week before starting to establish the model, each group was administered with the following therapeutic agents:
The normal group: administered subcutaneously with the same volume of normal saline;
The model control group: administered subcutaneously with the same volume of normal saline;
(§1) The icariin group: administered by subcutaneous injection with 2 mg/kg of icariin;
(§2) The high-dose icaritin group: administered by subcutaneous injection with 10 mg/kg of the icaritin injection of Example 11;
(§3) The medium-dose icaritin group: administered by subcutaneous injection with 5 mg/kg of the icaritin injection of Example 11;
(§4) The low-dose icaritin group: administered by subcutaneous injection with 1 mg/kg of the icaritin injection of Example 11.
Each group was administered once a day and fed normally. After consecutive administration for 3 weeks, the mice were anesthetized, and blood was sampled to measure the number of platelets and determine the effect of icaritin on the number of platelets (PLT) in the peripheral blood.

chronic ITP model rats [3] = test: Thrombin time, prothrombin time and partial thromboplastin time in chronic ITP model rats; type: in vivo, Wistar rats; details: high- and medium-dose groups, P<0.05
Procedure: (§5) Establishment of chronic ITP model: Wistar rats were selected to establish the model by injecting rabbit anti-rat platelet serum (APS). […] 50 Rats in which the model was successfully established were selected, weighed, and randomly divided into 5 groups, i.e. the model control group, the icariin group (positive control group), and the icaritin administration groups (high-, medium- and low-dose groups), with 10 rats in each group. The groups were administered with the following therapeutic agents, respectively.

normal mice = test: Bleeding time in normal mice (tail tip cut); type: in vivo, Kunming mice; set-up: unit not given here; details: 3 days, 1 h after last administration
Procedure: 100 Kunming mice were randomly divided into 5 groups, i.e. the blank control group (normal saline group), the icariin group (positive control group), the high-dose icaritin group, the medium-dose icaritin group, and the low-dose icaritin group. Each group was administered as follows. Blank control group: administered with the same volume of normal saline by subcutaneous injection; Icariin group: administered with 2 mg/kg of icariin by injection; High-dose icaritin group: administered with the injection of icaritin of Example 1 by subcutaneous injection at a dosage of 10 mg/kg; Medium-dose icaritin group: administered with the injection of icaritin of Example 1 by subcutaneous injection at a dosage of 5 mg/kg; Low-dose icaritin group: administered with the injection of icaritin of Example 1 by subcutaneous injection at a dosage of 1 mg/kg. Measurement of the bleeding time: The normal saline group (blank control group), the icariin group (positive control group), and the icaritin administration groups (high-, medium-, and low-dose groups) were designed as follows: 50 mice were selected, weighed, and randomly divided into 5 groups, with 10 mice in each group. The animals were administered consecutively for 3 days. At 1 h after the last administration, a filter paper was rolled to form a filter paper cartridge with a diameter similar to that of the mouse body, which was closed at one end. The mouse was allowed to climb into the cartridge. Then about 3 mm of tail tip of the mouse was cut with scissors. A stopwatch was started to record the time when the bleeding started. The tail tip of the mouse was point-contacted with a filter paper gently every 15 s until there was no blood or no blood can be seen.

NOD/Ltj mice = test: Effect on the white blood cells and platelets in NOD mice; type: in vivo; details: 15 days
Procedure: Non-obese diabetic (NOD) mice are a large mouse strains, including NOD/Scid, NOD/Ltj mice, etc. The NOD/Ltj mice used in this experiment are mice with an abnormal immune system in which platelets and white blood cells are obviously lower than those in normal mice.
5-Week-old healthy NOD mice, after adaptive feeding for one week, were randomly divided into 4 groups:
Group I was the blank control group, totally 13 mice; and was administered intragastrically with normal saline in the same volume of interleukin daily;
Group II was the positive control group, totally 13 mice, and was administered intragastrically with 10.0 mg/kg of interleukin daily;
Group III was the low-dose icaritin group, totally 13 mice, and was administered intragastrically with 30 mg/kg of icaritin daily;
Group IV was the high-dose icaritin group, totally 13 mice, and was administered intragastrically with 60 mg/kg of icaritin daily.
Each group was administered once a day for consecutively 15 days. The mice were anaesthetized (with 3% pentobarbital sodium, by intraperitoneal injection, at 0.1-0.15 ml per animal). 1 ml of blood wass sampled from abdominal aorta into an anticoagulation tube for routine blood test.

chronic ITP model rats [4] = test: Platelet count in chronic ITP model rats (anti-rat platelet serum); type: in vivo, Wistar rats
Procedure: as §5
The model control group: administered by subcutaneous injection with the same volume of normal saline;
as §1, §2, §3, §4
At 1 h after the last administration, blood was sampled from the venous plexus by inserting a disposable 20 μl blood collection tube into the inner canthus of the […].

[5] = low dose 1 mg/kg sc (injection of Example 11)
[6] = medium dose 5 mg/kg sc (injection of Example 11)
[7] = high dose 60 mg/kg intragastrically daily
[8] = low dose 30 mg/kg intragastrically daily

## COc1ccc(-c2oc3c(CC=C(C)C)c(O)cc(O)c3c(=O)c2O)cc1 [Icaritin]
[1]; high dose 100 mg/kg intragastric (tablets of Example 9)
  PLT: 1193.4 ± 95.4 10^9/L
[1]; low dose 10 mg/kg intragastric (tablets of Example 9)
  PLT: 862.7 ± 75.6 10^9/L
[1]; medium dose 50 mg/kg intragastric (tablets of Example 9)
  PLT: 983.5 ± 85.7 10^9/L
[2]; [5]
  PLT: 633.5 ± 43.2 10^9/L
[2]; [6]
  PLT: 725.9 ± 66.7 10^9/L
Chronic ITP model rats [3]
  partial thromboplastin time (APTT): significantly shorten
  prothrombin time (PT): significantly shorten
  thrombin time (TT): significantly shorten
Normal mice; high dose 10 mg/kg sc
  Bleeding Time: 1.86 ± 0.24**^ΔΔ
Normal mice; low dose 1 mg/kg sc
  Bleeding Time: 3.75 ± 0.46
Normal mice; medium dose 5 mg/kg sc
  Bleeding Time: 2.51 ± 0.35**^Δ
NOD/Ltj mice; [7]
  Platelets: 780.2 ± 46.5 ^##$$ 10^9/L
  White blood cells: 4.225 ± 0.51^##$ 10^9/L
NOD/Ltj mice; [8]
  Platelets: 730.5 ± 34.6^##$ 10^9/L
  White blood cells: 3.242 ± 0.45 ^#$ 10^9/L
Chronic ITP model rats [4]; high dose 10 mg/kg sc (injection of Example 11)
  Platelet count: 819.96 ± 61.8**^ΔΔ ×10^9
Chronic ITP model rats [4]; [5]
  Platelet count: 680.84 ± 50.5 ×10^9
Chronic ITP model rats [4]; [6]
  Platelet count: 720.4 ± 60.3**^Δ ×10^9
